Assay results from ChEMBL document CHEMBL1909046, “DrugMatrix in vitro pharmacology data”.

What was measured:
Glycine receptor = Glycine receptor (Rattus norvegicus, UniProt P22771+P24524+P07727+P20781); assay type: cell membranes, Wistar, Spinal cord, Membrane; further: in other assays of this panel Not Active means under 50% inhibition at 10 µM
[1] = biological target: Kappa-type opioid receptor (Homo sapiens, UniProt P41145); experiment: DRUGMATRIX: Opiate kappa (OP2, KOP) radioligand binding (ligand: [3H] Diprenorphine); assay type: cell membranes, HEK293, Membrane; conditions: Not Active = under 50% inhibition at 10 µM
Caspase-1 = biological target: T1, Caspase-1 (Homo sapiens, UniProt P29466); parameters: species or system Escherichia coli;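 further: Caspase-1 enzyme inhibition assay with a peptide substrate; in other assays of this panel Not Active means under 50% inhibition at 10 µM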
T1 sequence (P29466 whole entry): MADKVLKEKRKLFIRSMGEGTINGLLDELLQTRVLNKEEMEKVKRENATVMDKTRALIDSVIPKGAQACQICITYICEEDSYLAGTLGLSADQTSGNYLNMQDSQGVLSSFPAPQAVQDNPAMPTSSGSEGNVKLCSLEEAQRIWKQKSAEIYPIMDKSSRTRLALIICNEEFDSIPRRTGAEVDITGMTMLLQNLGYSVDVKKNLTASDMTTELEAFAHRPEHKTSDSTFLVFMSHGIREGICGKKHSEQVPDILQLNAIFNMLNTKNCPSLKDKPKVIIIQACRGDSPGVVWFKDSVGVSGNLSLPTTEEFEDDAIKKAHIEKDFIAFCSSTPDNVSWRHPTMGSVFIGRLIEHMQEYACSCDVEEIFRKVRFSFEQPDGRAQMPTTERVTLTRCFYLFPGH

[2] = biological target: T2, Receptor-type tyrosine-protein phosphatase C (Homo sapiens, UniProt P08575); parameters: species or system Escherichia coli;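 further: inhibition of CD45 enzyme activity measured using DiFMUP as substrate; in other assays of this panel Not Active means under 50% inhibition at 10 µM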
T2 sequence (P08575 whole entry): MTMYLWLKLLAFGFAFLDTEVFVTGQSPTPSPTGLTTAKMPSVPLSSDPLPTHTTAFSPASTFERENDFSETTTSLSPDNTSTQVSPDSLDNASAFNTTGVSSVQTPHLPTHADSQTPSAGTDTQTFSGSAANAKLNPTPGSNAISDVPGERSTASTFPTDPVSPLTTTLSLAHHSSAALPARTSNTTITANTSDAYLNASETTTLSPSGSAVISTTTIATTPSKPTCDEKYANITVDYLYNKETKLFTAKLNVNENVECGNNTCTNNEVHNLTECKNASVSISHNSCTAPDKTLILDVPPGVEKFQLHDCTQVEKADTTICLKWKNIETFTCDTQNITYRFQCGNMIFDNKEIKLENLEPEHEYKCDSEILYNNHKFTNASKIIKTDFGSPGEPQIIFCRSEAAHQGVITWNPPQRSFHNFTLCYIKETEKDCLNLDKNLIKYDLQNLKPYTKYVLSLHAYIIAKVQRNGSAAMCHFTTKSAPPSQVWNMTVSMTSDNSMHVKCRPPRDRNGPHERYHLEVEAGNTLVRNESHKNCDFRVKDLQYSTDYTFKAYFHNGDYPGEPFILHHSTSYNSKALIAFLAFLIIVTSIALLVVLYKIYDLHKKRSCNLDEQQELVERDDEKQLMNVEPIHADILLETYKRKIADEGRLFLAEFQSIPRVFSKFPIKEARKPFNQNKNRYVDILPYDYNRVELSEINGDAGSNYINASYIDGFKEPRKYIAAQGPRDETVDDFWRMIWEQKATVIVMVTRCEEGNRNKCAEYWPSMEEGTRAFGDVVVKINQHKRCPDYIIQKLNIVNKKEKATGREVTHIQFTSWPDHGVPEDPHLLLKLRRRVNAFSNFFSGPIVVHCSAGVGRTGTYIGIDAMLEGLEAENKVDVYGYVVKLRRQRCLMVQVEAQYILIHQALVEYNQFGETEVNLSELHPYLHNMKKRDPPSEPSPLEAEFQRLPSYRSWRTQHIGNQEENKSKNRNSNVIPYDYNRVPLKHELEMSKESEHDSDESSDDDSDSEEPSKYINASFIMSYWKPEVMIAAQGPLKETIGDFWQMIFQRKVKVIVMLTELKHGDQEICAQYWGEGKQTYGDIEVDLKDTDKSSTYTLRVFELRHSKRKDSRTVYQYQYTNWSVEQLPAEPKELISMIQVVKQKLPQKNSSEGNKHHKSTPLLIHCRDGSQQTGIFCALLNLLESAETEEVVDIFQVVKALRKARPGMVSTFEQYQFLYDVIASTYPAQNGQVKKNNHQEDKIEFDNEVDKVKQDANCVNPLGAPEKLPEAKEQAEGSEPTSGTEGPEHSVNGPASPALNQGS

Adenosine receptor A2a = Adenosine receptor A2a (Homo sapiens, UniProt P29274); experiment: DRUGMATRIX: Adenosine A2A radioligand binding (ligand: […]); assay type: cell membranes, HEK293, Membrane; conditions: Not Active = under 50% inhibition at 10 µM
Sequence of Adenosine receptor A2a (P29274 whole entry): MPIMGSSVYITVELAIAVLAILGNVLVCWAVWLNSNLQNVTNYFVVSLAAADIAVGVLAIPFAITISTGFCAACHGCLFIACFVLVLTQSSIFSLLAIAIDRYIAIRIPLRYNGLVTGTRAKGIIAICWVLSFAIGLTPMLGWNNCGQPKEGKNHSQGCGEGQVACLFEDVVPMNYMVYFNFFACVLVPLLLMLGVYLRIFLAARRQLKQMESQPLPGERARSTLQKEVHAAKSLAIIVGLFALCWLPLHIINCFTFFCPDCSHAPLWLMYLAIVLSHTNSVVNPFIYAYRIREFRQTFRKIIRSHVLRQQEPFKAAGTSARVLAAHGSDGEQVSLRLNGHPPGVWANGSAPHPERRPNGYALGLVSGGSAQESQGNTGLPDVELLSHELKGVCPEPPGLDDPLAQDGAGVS

Sequence of Kappa-type opioid receptor (P41145 whole entry): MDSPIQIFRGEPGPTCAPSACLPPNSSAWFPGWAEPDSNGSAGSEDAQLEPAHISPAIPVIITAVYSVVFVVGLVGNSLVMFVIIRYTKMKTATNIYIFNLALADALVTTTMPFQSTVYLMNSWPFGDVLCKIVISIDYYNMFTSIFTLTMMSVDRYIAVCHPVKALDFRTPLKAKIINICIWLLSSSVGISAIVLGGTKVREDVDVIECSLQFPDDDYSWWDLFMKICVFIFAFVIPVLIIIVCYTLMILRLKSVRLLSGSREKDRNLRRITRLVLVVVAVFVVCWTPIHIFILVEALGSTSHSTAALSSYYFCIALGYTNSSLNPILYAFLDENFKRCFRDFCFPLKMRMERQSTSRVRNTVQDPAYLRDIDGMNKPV

| Structure (SMILES) | IC50 (Glycine receptor) | IC50 ([1]; hek293) | IC50 (Caspase-1) | IC50 [2] | IC50 (Adenosine receptor A2a; hek293) | Ki [1] [µM] | IC50 ([1]; read-out: IC50) [µM] | IC50 (Adenosine receptor A2a; read-out: IC50) [µM] | Ki (Adenosine receptor A2a; read-out: Ki) [µM] |
| --- | --- | --- | --- | --- | --- | --- | --- | --- | --- |
| CC12CCC(CC1=O)C2(C)C (configuration not stated) [CAMPHOR] | Not Active | Not Active | Not Active | Not Active | Not Active |  |  |  |  |
| CN(Cc1cc(Br)cc(Br)c1N)C1CCCCC1 [BROMHEXINE] | Not Active | Not Active | Not Active | Not Active | Not Active |  |  |  |  |
| Cc1ccnc2c1NC(=O)c1cccnc1N2C1CC1 [NEVIRAPINE] | Not Active | Not Active | Not Active | Not Active | Not Active |  |  |  |  |
| CCN1CCN(C(=O)N[C@@H](C(=O)N[C@@H]2C(=O)N3[C@@H]2SC(C)(C)[C@@H]3C(=O)O)c2ccccc2)C(=O)C1=O [PIPERACILLIN] | Not Active | Not Active | Not Active | Not Active | Not Active |  |  |  |  |
| O=C(O)c1ccccc1 [BENZOIC ACID] | Not Active | Not Active | Not Active | Not Active | Not Active |  |  |  |  |
| CC[C@H]1OC(=O)[C@H](C)[C@@H](O[C@H]2C[C@@](C)(OC)[C@@H](O)[C@H](C)O2)[C@H](C)[C@@H](O[C@@H]2O[C@H](C)C[C@H](N(C)C)[C@H]2O)[C@](C)(O)C[C@@H](C)C(=O)[C@H](C)[C@@H](O)[C@]1(C)O [ERYTHROMYCIN] | Not Active | Not Active | Not Active | Not Active | Not Active |  |  |  |  |
| c1ccc2c(c1)Nc1ccccc1S2 [PHENOTHIAZINE] | Not Active | Not Active | Not Active | Not Active | Not Active |  |  |  |  |
| Cl.NC[C@H]1CC[C@H](C(=O)Oc2ccc(CCC(=O)O)cc2)CC1 [CETRAXATE HYDROCHLORIDE] | Not Active | Not Active | Not Active | Not Active | Not Active |  |  |  |  |
| O=c1[nH]c2ccccc2c2ccccc12 | Not Active | Not Active | Not Active | Not Active | Not Active |  |  |  |  |
| C[C@H](C(=O)O)c1ccc2oc(-c3ccc(F)cc3)nc2c1 [FLUNOXAPROFEN] | Not Active | Not Active | Not Active | Not Active | Not Active |  |  |  |  |
| C[N+](C)(C)CCOC(N)=O.[Cl-] [CARBACHOL] | Not Active | Not Active | Not Active | Not Active | Not Active |  |  |  |  |
| O=C(O)CCc1nc(-c2ccccc2)c(-c2ccccc2)o1 [OXAPROZIN] | Not Active | Not Active | Not Active | Not Active | Not Active |  |  |  |  |
| CC(=O)[C@]1(O)Cc2c(O)c3c(c(O)c2[C@@H](O[C@H]2C[C@H](N)[C@H](O)[C@H](C)O2)C1)C(=O)c1ccccc1C3=O [IDARUBICIN] | Not Active | Not Active | Not Active | Not Active | Not Active |  |  |  |  |
| NS(=O)(=O)c1cc(C(=O)O)c(NCc2ccco2)cc1Cl [FUROSEMIDE] | Not Active | Not Active | Not Active | Not Active | Not Active |  |  |  |  |
| O=C1CN(/N=C/c2ccc([N+](=O)[O-])o2)C(=O)N1 [NITROFURANTOIN] | Not Active | Not Active | Not Active | Not Active | Not Active |  |  |  |  |
| c1ccc2sc(SSc3nc4ccccc4s3)nc2c1 [BENZOTHIAZYL DISULFIDE] | Not Active |  | Not Active | Not Active | Not Active | 0.497 | 1.24 |  |  |
| CC12CCC(CC1)C(C)(C)O2 [EUCALYPTOL] | Not Active | Not Active | Not Active | Not Active | Not Active |  |  |  |  |
| CC(=O)Nc1ccc2c(c1)Cc1ccccc1-2 [2-ACETYLAMINOFLUORENE] | Not Active | Not Active | Not Active | Not Active | Not Active |  |  |  |  |
| COc1ccccc1OCCNCC(O)COc1cccc2[nH]c3ccccc3c12 (configuration not stated) [CARVEDILOL] | Not Active | Not Active | Not Active | Not Active | Not Active |  |  |  |  |
| CC(N)Cc1c[nH]c2ccc(OCc3cccs3)cc12 (configuration not stated) [BW-723C86] | Not Active | Not Active | Not Active | Not Active | Not Active |  |  |  |  |
| Nc1nc(N)c2nc(CNc3ccc(C(=O)N[C@@H](CCC(=O)O)C(=O)O)cc3)cnc2n1 [AMINOPTERIN] | Not Active | Not Active | Not Active | Not Active | Not Active |  |  |  |  |
| CCN(CCO)CCCC(C)Nc1ccnc2cc(Cl)ccc12 (configuration not stated) [HYDROXYCHLOROQUINE] | Not Active | Not Active | Not Active | Not Active | Not Active |  |  |  |  |
| CN(CCOc1ccc(C[C@H](Nc2ccccc2C(=O)c2ccccc2)C(=O)O)cc1)c1ccccn1 | Not Active | Not Active | Not Active | Not Active |  |  |  | 37.3 | 20.9 |
| CCN1CCN(c2cc3c(cc2F)c(=O)c(C(=O)O)cn3C2CC2)CC1 [ENROFLOXACIN] | Not Active | Not Active | Not Active | Not Active | Not Active |  |  |  |  |
| C[C@H]1C[C@H]2[C@@H]3CCC4=CC(=O)C=C[C@]4(C)[C@@]3(F)[C@@H](O)C[C@]2(C)[C@@]1(O)C(=O)CO [BETAMETHASONE] | Not Active | Not Active | Not Active | Not Active | Not Active |  |  |  |  |
| OC[C@H]1O[C@@H]2O[C@H]3[C@H](O)[C@@H](O)[C@@H](O[C@H]4[C@H](O)[C@@H](O)[C@@H](O[C@H]5[C@H](O)[C@@H](O)[C@@H](O[C@H]6[C@H](O)[C@@H](O)[C@@H](O[C@H]7[C@H](O)[C@@H](O)[C@@H](O[C@H]8[C@H](O)[C@@H](O)[C@@H](O[C@H]1[C@H](O)[C@H]2O)O[C@@H]8CO)O[C@@H]7CO)O[C@@H]6CO)O[C@@H]5CO)O[C@@H]4CO)O[C@@H]3CO [BETADEX] | Not Active | Not Active | Not Active | Not Active | Not Active |  |  |  |  |
| c1ccc(Cn2ccnc2)cc1 | Not Active | Not Active | Not Active | Not Active | Not Active |  |  |  |  |
| CCCCCCNC(=O)n1cc(F)c(=O)[nH]c1=O [CARMOFUR] | Not Active | Not Active | Not Active | Not Active | Not Active |  |  |  |  |
| OC[C@H]1O[C@@H]2O[C@H]3[C@H](O)[C@@H](O)[C@@H](O[C@H]4[C@H](O)[C@@H](O)[C@@H](O[C@H]5[C@H](O)[C@@H](O)[C@@H](O[C@H]6[C@H](O)[C@@H](O)[C@@H](O[C@H]7[C@H](O)[C@@H](O)[C@@H](O[C@H]1[C@H](O)[C@H]2O)O[C@@H]7CO)O[C@@H]6CO)O[C@@H]5CO)O[C@@H]4CO)O[C@@H]3CO [ALFADEX] | Not Active | Not Active | Not Active | Not Active | Not Active |  |  |  |  |
